Data as given in ChEMBL document CHEMBL1201862, “PubChem BioAssay data set” (2004).
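96-well plates; 48 h exposure; 5 concentrations. Endpoints by linear interpolation between flanking doses. Not reached: highest tested concentration assigned. GI50: concentration for 50% inhibition of growth.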 The source made the active and inactive calls. Cut-off read from the data, not from the text of the source: active = GI50 up to about 1.1 µM and inactive = higher.

What was measured:
Assay in all cases: growth of human tumour cells (NCI), 48 h
HT-29 = system: HT-29
TK-10 = system: TK-10
KM12 = system: KM12
OVCAR-8 = system: OVCAR-8
SN12C = system: SN12C
UO-31 = system: UO-31
HCT-15 = system: HCT-15
HL-60 = system: HL-60
OVCAR-3 = system: OVCAR-3
SF-539 = system: SF-539
UACC-257 = system: UACC-257
SNB-19 = system: SNB-19
K562 = system: K562
SW-620 = system: SW-620
CCRF-CEM = system: CCRF-CEM
HCT-116 = system: HCT-116
A549 = system: A549
A498 = system: A498
EKVX = system: EKVX
KM-20L2 = system: KM-20L2
NCI-H226 = system: NCI-H226
OVCAR-4 = system: OVCAR-4
LXFL 529 = system: LXFL 529
RPMI-8226 = system: RPMI-8226
DMS-114 = system: DMS-114
SK-OV-3 = system: SK-OV-3
OVCAR-5 = system: OVCAR-5
SF-268 = system: SF-268
ACHN = system: ACHN
M14 = system: M14
HOP-62 = system: HOP-62
MOLT-4 = system: MOLT-4
M19-MEL = system: M19-MEL
IGROV-1 = system: IGROV-1
SK-MEL-5 = system: SK-MEL-5
COLO 205 = system: COLO 205
786-0 = system: 786-0
SR = system: SR
NCI-H460 = system: NCI-H460
NCI-H23 = system: NCI-H23
CAKI-1 = system: CAKI-1
Malme-3M = system: Malme-3M
LOX IMVI = system: LOX IMVI
SF-295 = system: SF-295
UACC-62 = system: UACC-62
NCI-H522 = system: NCI-H522
U-251 = system: U-251
DLD-1 = system: DLD-1
SK-MEL-2 = system: SK-MEL-2
SNB-78 = system: SNB-78
MCF7 = system: MCF7
MDA-N = system: MDA-N
SK-MEL-28 = system: SK-MEL-28
RXF 393 = system: RXF 393
MDA-MB-231 = system: MDA-MB-231
SNB-75 = system: SNB-75
HOP-92 = system: HOP-92
PC-3 = system: PC-3
NCI/ADR-RES = system: NCI/ADR-RES
BT-549 = system: BT-549
HCC 2998 = system: HCC 2998
DU-145 = system: DU-145
Hs-578T = system: Hs-578T
MDA-MB-435 = system: MDA-MB-435
T47D = system: T47D
DMS-273 = system: DMS-273
XF498 = system: XF498

For COC(=O)C1CC2C=CC=CC(=O)C2(C)C1 (stereo not drawn), the GI50 (HT-29) was 40 µM (inactive), the GI50 (TK-10) was > 100 µM (inactive) and the GI50 (KM12) was 45.7 µM (inactive). For the same compound, the GI50 (OVCAR-8) was 41.1 µM (inactive), the GI50 (SN12C) was 81.1 µM (inactive) and the GI50 (UO-31) was > 100 µM (inactive). For the same compound, the GI50 (HCT-15) was 31 µM, the GI50 (HL-60) was 25.8 µM (inactive) and the GI50 (OVCAR-3) was > 100 µM (inactive). For the same compound, the GI50 (SF-539) was > 100 µM (inactive), the GI50 (UACC-257) was 38.7 µM (inactive) and the GI50 (SNB-19) was 76.7 µM (inactive). The GI50 (K562) was 30.7 µM (inactive), the GI50 (SW-620) was 27.2 µM (inactive) and the GI50 (CCRF-CEM) was 21.6 µM (inactive). For the same compound, the GI50 (HCT-116) was 28 µM (inactive), the GI50 (A549) was > 100 µM (inactive) and the GI50 (A498) was 36.2 µM (inactive). For the same compound, the GI50 (EKVX) was > 100 µM (inactive), the GI50 (KM-20L2) was > 100 µM (inactive) and the GI50 (NCI-H226) was 56.4 µM (inactive). For the same compound, the GI50 (OVCAR-4) was 83.2 µM (inactive), the GI50 (LXFL 529) was 31.2 µM (inactive) and the GI50 (RPMI-8226) was 22.6 µM (inactive). For the same compound, the GI50 (DMS-114) was 40.4 µM (inactive), the GI50 (SK-OV-3) was > 100 µM (inactive) and the GI50 (OVCAR-5) was > 100 µM (inactive). For the same compound, the GI50 (SF-268) was 37.3 µM (inactive), the GI50 (ACHN) was 59.6 µM (inactive) and the GI50 (M14) was 30.5 µM (inactive). For the same compound, the GI50 (HOP-62) was > 100 µM (inactive), the GI50 (MOLT-4) was 25.6 µM (inactive) and the GI50 (M19-MEL) was 55.5 µM (inactive). For the same compound, the GI50 (IGROV-1) was > 100 µM (inactive), the GI50 (SK-MEL-5) was 51.1 µM (inactive) and the GI50 (COLO 205) was 76.9 µM (inactive). The GI50 (786-0) was 36.6 µM (inactive), the GI50 (SR) was 27.8 µM (inactive) and the GI50 (NCI-H460) was 41.8 µM (inactive). The GI50 (NCI-H23) was 44.3 µM (inactive), the GI50 (CAKI-1) was > 100 µM (inactive) and the GI50 (Malme-3M) was 49.7 µM (inactive). For the same compound, the GI50 (LOX IMVI) was 53.3 µM (inactive), the GI50 (SF-295) was 53.6 µM (inactive) and the GI50 (UACC-62) was 39.9 µM (inactive). The GI50 (NCI-H522) was > 10 µM (inactive), the GI50 (U-251) was > 100 µM (inactive) and the GI50 (DLD-1) was 15.6 µM (inactive). For the same compound, the GI50 (SK-MEL-2) was 59.6 µM (inactive) and the GI50 (SNB-78) was 30.7 µM (inactive).
COP(=O)(OC)c1ccc(NCc2cc(O)ccc2O)cc1 was tested, and the GI50 (HT-29) was 24.8 µM (inactive), the GI50 (TK-10) was 23.4 µM (inactive) and the GI50 (KM12) was 19.9 µM (inactive). For the same compound, the GI50 (OVCAR-8) was 26.8 µM (inactive), the GI50 (SN12C) was 30.3 µM (inactive) and the GI50 (UO-31) was 15.5 µM (inactive). For the same compound, the GI50 (HCT-15) was 21.3 µM, the GI50 (MCF7) was 28.8 µM (inactive) and the GI50 (HL-60) was 21.4 µM (inactive). For the same compound, the GI50 (OVCAR-3) was 6.34 µM (inactive), the GI50 (SF-539) was 21.2 µM (inactive) and the GI50 (UACC-257) was 22.2 µM (inactive). The GI50 (SNB-19) was 37.8 µM (inactive), the GI50 (K562) was 30.5 µM (inactive) and the GI50 (SW-620) was 42 µM (inactive). For the same compound, the GI50 (CCRF-CEM) was 18.8 µM (inactive), the GI50 (HCT-116) was 24.8 µM (inactive) and the GI50 (A549) was > 100 µM (inactive). For the same compound, the GI50 (A498) was 92.7 µM (inactive), the GI50 (EKVX) was 23.1 µM (inactive) and the GI50 (NCI-H226) was 38.9 µM (inactive). For the same compound, the GI50 (MDA-N) was 26.3 µM (inactive), the GI50 (SK-MEL-28) was 30.2 µM (inactive) and the GI50 (OVCAR-4) was 27 µM (inactive). The GI50 (RPMI-8226) was 19.5 µM (inactive), the GI50 (SK-OV-3) was > 100 µM (inactive) and the GI50 (OVCAR-5) was 23.9 µM (inactive). The GI50 (SF-268) was 17.6 µM (inactive), the GI50 (ACHN) was 18.3 µM (inactive) and the GI50 (M14) was 13.8 µM (inactive). The GI50 (HOP-62) was 35.8 µM (inactive), the GI50 (RXF 393) was 25.3 µM (inactive) and the GI50 (MOLT-4) was 30.2 µM (inactive). The GI50 (IGROV-1) was 30.3 µM (inactive), the GI50 (SK-MEL-5) was 22.1 µM (inactive) and the GI50 (MDA-MB-231) was 26.9 µM (inactive). The GI50 (COLO 205) was 27.7 µM (inactive), the GI50 (786-0) was 25.2 µM (inactive) and the GI50 (SR) was 14.3 µM (inactive). The GI50 (SNB-75) was 29.5 µM (inactive), the GI50 (NCI-H460) was 22.1 µM (inactive) and the GI50 (HOP-92) was 21.4 µM (inactive). For the same compound, the GI50 (NCI-H23) was 34.1 µM (inactive), the GI50 (PC-3) was > 60.4 µM (inactive) and the GI50 (CAKI-1) was 19.2 µM (inactive). For the same compound, the GI50 (Malme-3M) was 18.9 µM (inactive), the GI50 (NCI/ADR-RES) was 31 µM (inactive) and the GI50 (BT-549) was 17.9 µM (inactive). For the same compound, the GI50 (HCC 2998) was 23 µM (inactive), the GI50 (LOX IMVI) was 26.3 µM (inactive) and the GI50 (SF-295) was 17.3 µM (inactive). For the same compound, the GI50 (UACC-62) was 19.5 µM (inactive), the GI50 (DU-145) was 36.8 µM (inactive) and the GI50 (NCI-H522) was 17.3 µM (inactive). For the same compound, the GI50 (U-251) was 30.6 µM (inactive), the GI50 (Hs-578T) was 24.8 µM (inactive) and the GI50 (SK-MEL-2) was 46.6 µM (inactive). The GI50 (MDA-MB-435) was 26.8 µM (inactive) and the GI50 (T47D) was 28.8 µM (inactive).
In the case of CSc1nc2c(nc(C)c(=O)n2C2OCC(OC(C)=O)C(OC(C)=O)C2OC(C)=O)c(=O)[nH]1 (stereo not drawn), the GI50 (HT-29) was > 100 µM (inactive), the GI50 (TK-10) was > 100 µM (inactive) and the GI50 (KM12) was > 100 µM (inactive). For the same compound, the GI50 (OVCAR-8) was > 100 µM (inactive), the GI50 (SN12C) was > 100 µM (inactive) and the GI50 (UO-31) was > 100 µM (inactive). For the same compound, the GI50 (HCT-15) was greater than 100 µM, the GI50 (HL-60) was > 100 µM (inactive) and the GI50 (OVCAR-3) was > 100 µM (inactive). For the same compound, the GI50 (UACC-257) was > 100 µM (inactive), the GI50 (SNB-19) was > 100 µM (inactive) and the GI50 (K562) was > 100 µM (inactive). The GI50 (SW-620) was > 100 µM (inactive), the GI50 (CCRF-CEM) was > 100 µM (inactive) and the GI50 (HCT-116) was > 100 µM (inactive). For the same compound, the GI50 (A549) was > 100 µM (inactive), the GI50 (A498) was > 100 µM (inactive) and the GI50 (EKVX) was > 100 µM (inactive). The GI50 (KM-20L2) was > 100 µM (inactive), the GI50 (SK-MEL-28) was > 100 µM (inactive) and the GI50 (OVCAR-4) was > 100 µM (inactive). For the same compound, the GI50 (LXFL 529) was > 100 µM (inactive), the GI50 (RPMI-8226) was > 100 µM (inactive) and the GI50 (DMS-114) was > 100 µM (inactive). The GI50 (SK-OV-3) was > 100 µM (inactive), the GI50 (DMS-273) was > 100 µM (inactive) and the GI50 (OVCAR-5) was > 100 µM (inactive). For the same compound, the GI50 (SF-268) was > 100 µM (inactive), the GI50 (ACHN) was > 100 µM (inactive) and the GI50 (M14) was > 100 µM (inactive). For the same compound, the GI50 (HOP-62) was > 100 µM (inactive), the GI50 (RXF 393) was > 100 µM (inactive) and the GI50 (MOLT-4) was > 100 µM (inactive). For the same compound, the GI50 (M19-MEL) was > 100 µM (inactive), the GI50 (IGROV-1) was > 100 µM (inactive) and the GI50 (SK-MEL-5) was > 100 µM (inactive). The GI50 (COLO 205) was > 100 µM (inactive), the GI50 (786-0) was > 100 µM (inactive) and the GI50 (SR) was > 100 µM (inactive). The GI50 (SNB-75) was > 100 µM (inactive), the GI50 (NCI-H460) was > 100 µM (inactive) and the GI50 (HOP-92) was 3.76 µM (inactive). For the same compound, the GI50 (NCI-H23) was > 100 µM (inactive), the GI50 (XF498) was > 100 µM (inactive) and the GI50 (CAKI-1) was 88.5 µM (inactive). For the same compound, the GI50 (Malme-3M) was > 100 µM (inactive), the GI50 (HCC 2998) was > 100 µM (inactive) and the GI50 (LOX IMVI) was > 100 µM (inactive). The GI50 (SF-295) was > 100 µM (inactive), the GI50 (UACC-62) was > 100 µM (inactive) and the GI50 (NCI-H522) was > 100 µM (inactive). For the same compound, the GI50 (U-251) was > 100 µM (inactive), the GI50 (DLD-1) was > 100 µM (inactive) and the GI50 (SK-MEL-2) was > 100 µM (inactive).
